The structures appear in SMILES notation.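 Tested at 5 concentrations; 48 h exposure; 96-well plates; endpoints linearly interpolated, else capped at highest concentration. The concentration for 50% growth inhibition is given as GI50.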 The source made the active and inactive calls. Rule as the data show it: active = GI50 up to about 1.1 µM and inactive = higher.

Some test systems named below: HOP-92; K562; UACC-62; U-251; BT-549; SNB-75; Hs-578T; DU-145; MDA-MB-435; T47D; SF-295; CCRF-CEM; SNB-19; SN12C; HT-29; MDA-MB-231; 786-0.
What all share (assay): NCI tumour cell line growth inhibition, 48 h

With `CCN(CC)C(=S)N/N=C(\C)c1cccc(C)n1`, the GI50 in the assay with HOP-92 was 1.49 µM (inactive); in the assay on K562 it was < 0.01 µM (active); in the assay on UACC-62, 0.259 µM (active); with U-251, < 0.0431 µM (active); in the assay on BT-549, 0.776 µM (active); in the assay with SNB-75, 4.11 µM (inactive). Also, the GI50 in the assay on Hs-578T was 23.4 µM (inactive); in the assay with DU-145 it was 0.484 µM (active); with MDA-MB-435 it was 0.377 µM (active); in the assay on T47D it was < 0.01 µM (active); with SF-295 it was 0.315 µM (active); with CCRF-CEM it was < 0.01 µM (active). The GI50 with SNB-19 was 0.571 µM (active); in the assay on SN12C, 0.292 µM (active); with HT-29, < 0.01 µM (active); in the assay on MDA-MB-231 it was < 0.01 µM (active).

Turning to `COC(=O)c1ccc(S)c(S(=O)(=O)Nc2nc(N)n[nH]2)c1`, the GI50 in the assay on HOP-92, in the assay on K562, in the assay with UACC-62, with U-251, in the assay with BT-549 and in the assay with Hs-578T was > 100 µM (inactive) each time. The GI50 in the assay on DU-145, in the assay with 786-0, with MDA-MB-435, in the assay on T47D, with SF-295 and with CCRF-CEM was > 100 µM (inactive) in each case. Further, the GI50 in the assay with SNB-19, with SN12C, in the assay with HT-29 and in the assay with MDA-MB-231 was > 100 µM (inactive) throughout.

Take `O=S(=O)(OI(O)CC(F)(F)F)C(F)(F)F`: the GI50 with HOP-92, in the assay with K562, with UACC-62, in the assay on U-251, with BT-549 and in the assay on SNB-75 was > 100 µM (inactive) in each case. The GI50 with DU-145, with 786-0, in the assay on MDA-MB-435, in the assay on T47D, in the assay on SF-295 and in the assay on CCRF-CEM was > 100 µM (inactive) each time. Moreover, the GI50 in the assay on SN12C, in the assay with HT-29 and in the assay with MDA-MB-231 was > 100 µM (inactive) in each case.

In the case of `CC(=O)c1cc(I)c(O)c2ncccc12`, the GI50 was 2.07 µM (inactive) in the assay on HOP-92; 7.55 µM (inactive) in the assay on K562; 3.3 µM (inactive) with UACC-62; 3.97 µM (inactive) in the assay with U-251; 5.07 µM (inactive) in the assay on BT-549; > 10 µM (inactive) in the assay with Hs-578T. In addition, the GI50 is 3.3 µM (inactive) in the assay on DU-145; 3.03 µM (inactive) in the assay on 786-0; 4.09 µM (inactive) in the assay with MDA-MB-435; 5.74 µM (inactive) in the assay with T47D; 4.07 µM (inactive) in the assay on SF-295; 2.07 µM (inactive) in the assay with CCRF-CEM. For the same compound, the GI50 in the assay on SNB-19 was 5.47 µM (inactive); in the assay with SN12C it was 3.69 µM (inactive); with HT-29, 4.42 µM (inactive); with MDA-MB-231 it was 2.55 µM (inactive).

Consider `Cc1oc(N)c(S(=O)(=O)c2cc3ccccc3[n+]([O-])c2N)c1C`, for which the GI50 with HOP-92, in the assay on UACC-62, with U-251, with BT-549, in the assay with SNB-75 and in the assay on Hs-578T was > 100 µM (inactive) throughout. Besides, the GI50 in the assay with DU-145, in the assay on 786-0, with MDA-MB-435, in the assay with T47D, with SF-295 and in the assay with SNB-19 was > 100 µM (inactive) in each case. The GI50 in the assay with SN12C, in the assay with HT-29 and in the assay with MDA-MB-231 was > 100 µM (inactive) throughout.

As for `Cc1ccc(S(=O)(=O)N/N=C2/C3CCC(C3)C2c2ccccc2)cc1` (stereo not given), the GI50 in the assay with HOP-92, in the assay with K562, in the assay with UACC-62, in the assay on U-251, in the assay with BT-549 and in the assay with SNB-75 was > 100 µM (inactive) each time. Moreover, the GI50 with Hs-578T, with DU-145, in the assay with 786-0, with MDA-MB-435, in the assay with T47D and in the assay on SF-295 was > 100 µM (inactive) each time. Further, the GI50 with CCRF-CEM, with SNB-19, in the assay with SN12C and in the assay on HT-29 was > 100 µM (inactive) each time.

Take `Cc1cc(-n2c(/C=C/c3ccc(Cl)cc3)nc3cc(Cl)ccc3c2=O)on1`: the GI50 with HOP-92 was 16 µM (inactive); in the assay with K562, > 50 µM (inactive); in the assay on UACC-62, > 50 µM (inactive); with U-251, 6.4 µM (inactive); with BT-549 it was > 50 µM (inactive); in the assay with Hs-578T it was 8.32 µM (inactive). For the same compound, the GI50 is > 50 µM (inactive) with DU-145; 1.47 µM (inactive) in the assay on 786-0; 14.2 µM (inactive) in the assay on MDA-MB-435; > 50 µM (inactive) in the assay on T47D; 22 µM (inactive) in the assay on SF-295; > 50 µM (inactive) in the assay on CCRF-CEM. For the same compound, the GI50 is 9.86 µM (inactive) in the assay with SNB-19, 20.5 µM (inactive) in the assay on SN12C, > 50 µM (inactive) in the assay on HT-29 and 15.6 µM (inactive) in the assay with MDA-MB-231.

On to `[N-]=[N+]=NCc1cccc(Nc2cc(=O)[nH]c(=O)[nH]2)c1`, for which the GI50 is 74 µM (inactive) in the assay with HOP-92; > 100 µM (inactive) with K562; > 100 µM (inactive) with UACC-62; > 100 µM (inactive) with BT-549; > 100 µM (inactive) with SNB-75; > 100 µM (inactive) in the assay with Hs-578T. The GI50 in the assay on DU-145 is > 100 µM (inactive); in the assay with 786-0 it was > 100 µM (inactive); with MDA-MB-435, > 100 µM (inactive); in the assay on T47D it was 51.2 µM (inactive); with SF-295, 57.3 µM (inactive); in the assay with CCRF-CEM, > 100 µM (inactive). In addition, the GI50 with SNB-19, in the assay with SN12C and with HT-29 was > 100 µM (inactive) each time.

In the case of `Fc1ccccc1C1SCc2nc3cc4ccccc4cc3n21` (stereo not given), the GI50 with K562 was > 100 µM (inactive); with UACC-62, 57.9 µM (inactive); in the assay with U-251 it was 33.7 µM (inactive); in the assay on BT-549, > 100 µM (inactive); with SNB-75 it was 31.7 µM (inactive); in the assay with Hs-578T, 26.5 µM (inactive). In addition, the GI50 is 60.8 µM (inactive) in the assay on DU-145; 20.5 µM (inactive) with 786-0; > 100 µM (inactive) with MDA-MB-435; 14 µM (inactive) with T47D; 34.4 µM (inactive) in the assay with SF-295; > 100 µM (inactive) with CCRF-CEM. Also, the GI50 with SNB-19 is 32.5 µM (inactive); in the assay on SN12C, 36.1 µM (inactive); in the assay on HT-29, 43.9 µM (inactive); in the assay with MDA-MB-231, 13.2 µM (inactive).

For `Cn1nc(C(=O)N2CC(CCl)c3c2cc(N)c2ccccc32)cc1NC(=O)Nc1cc(C(=O)N2CC(CCl)c3c2cc(N)c2ccccc32)nn1C` (stereo not given), the GI50 in the assay on K562 was 0.231 µM (active); with UACC-62 it was 0.107 µM (active); in the assay on U-251, 0.0212 µM (active); with BT-549, 0.0718 µM (active); in the assay on SNB-75, 0.0185 µM (active); in the assay with DU-145 it was 0.0116 µM (active). The GI50 was 0.0547 µM (active) with 786-0; 0.219 µM (active) with MDA-MB-435; < 0.01 µM (active) in the assay with T47D; 1.55 µM (inactive) with SF-295; < 0.01 µM (active) in the assay on CCRF-CEM; 0.0621 µM (active) in the assay with SNB-19. Besides, the GI50 with SN12C was 0.0323 µM (active); in the assay on HT-29, 0.0215 µM (active); with MDA-MB-231, 0.243 µM (active).

As for `CC(=O)O[C@H]1[C@H](OC(=O)CC(C)(O)CC(=O)O)C[C@]2(C)C3=C(CCC2C1(C)C)[C@]1(C)CC[C@H]([C@H]2CC[C@H](C(C)(C)O)OC2O)[C@@]1(C)[C@@H](O)C3` (stereo not given in full), the GI50 is 16.9 µM (inactive) in the assay with HOP-92; 26.2 µM (inactive) in the assay with K562; 19.4 µM (inactive) in the assay with UACC-62; 19.8 µM (inactive) in the assay on U-251; 15.1 µM (inactive) with BT-549; 16 µM (inactive) in the assay on Hs-578T. In addition, the GI50 in the assay with DU-145 is 25.8 µM (inactive); in the assay with 786-0, 18.4 µM (inactive); with MDA-MB-435, 19.1 µM (inactive); in the assay with T47D, 20.9 µM (inactive); with SF-295, 18.3 µM (inactive); in the assay with CCRF-CEM, 22 µM (inactive). Also, the GI50 in the assay on SNB-19 is 18.8 µM (inactive); with SN12C, 17.5 µM (inactive); with HT-29 it was 16.3 µM (inactive); in the assay with MDA-MB-231, 14.9 µM (inactive).

`CCCCN=C(OC1C=CCCC1)SC` (stereo not given): the GI50 was 43.4 µM (inactive) in the assay on HOP-92; > 100 µM (inactive) with K562; > 100 µM (inactive) in the assay with UACC-62; > 100 µM (inactive) with U-251; > 100 µM (inactive) with BT-549; 51.9 µM (inactive) in the assay with SNB-75. Moreover, the GI50 in the assay on DU-145, in the assay on 786-0, in the assay with MDA-MB-435, in the assay on T47D, in the assay with SF-295 and in the assay with CCRF-CEM was > 100 µM (inactive) each time. Further, the GI50 with SNB-19, in the assay on SN12C, with HT-29 and with MDA-MB-231 was > 100 µM (inactive) in each case.

For the compound `COc1ccccc1-c1cc(O)c2c(C)cc(C)nc2n1`, the GI50 in the assay with HOP-92 is 31.8 µM (inactive); in the assay with K562 it was 67.9 µM (inactive); in the assay with UACC-62, 71.9 µM (inactive); in the assay with BT-549 it was 96.2 µM (inactive); in the assay on Hs-578T, > 100 µM (inactive); in the assay on DU-145 it was > 100 µM (inactive). In addition, the GI50 with T47D is 8.13 µM (inactive); in the assay on CCRF-CEM it was 47.9 µM (inactive); in the assay on SNB-19, 73.3 µM (inactive); in the assay on SN12C it was 70.1 µM (inactive); in the assay with HT-29, 56.8 µM (inactive); in the assay with MDA-MB-231 it was 84.3 µM (inactive).

The values are drawn from ChEMBL document CHEMBL1201862, “PubChem BioAssay data set” (2004).
